tested on: genotype A, "Long" strain RSV; test: RSV-A assay (CPE protection in Hep-2 cells, ATPlite readout); type: cell-based, Human respiratory syncytial virus (HRSV); conditions: RSV-A Long strain, MOI 0.1, CPE protection, read-out: Human RSV-A (“Long”) EC50
Outline: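 Hep-2, 8,000 cells/well, MOI 0.1 (PFU- or TCID50-based); 2-fold compound series, duplicates; 5 d incubation; ATPlite luminescence readout; EC50.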

SMILES	EC50 [nM]
COc1cc(C(=O)NC[C@@](O)(c2cc3c(c(-c4ccc(F)c(Br)c4F)n2)OC[C@]3(C)C(N)=O)C(F)(F)F)cc2cn(C3CC3)nc12 [Example 1220]	< 200

same assay, conditions: human respiratory syncytial virus, RSV-A Long strain, MOI 0.1, CPE protection, read-out: Human RSV-A (“Long”) EC50

SMILES	EC50 [nM]
COc1cc(C(=O)NC[C@](O)(c2cc3c(c(-c4ccc(F)cc4)n2)OC[C@]3(C)C(N)=O)C2CC2)cc2cc(C3CC3)nnc12 [Example 1109]	< 200
COc1cc(C(=O)NC[C@](O)(c2cc3c(c(-c4ccc5c(c4)OC(F)(F)O5)n2)OC[C@]3(C)C(N)=O)C(F)(F)F)cc2cc(C)nnc12 [Example 1110]	< 200
COc1cc(C(=O)NC[C@](O)(c2cc3c(c(-c4ccc5c(c4)OC(F)(F)O5)n2)OC[C@]3(C)C(N)=O)C(F)(F)F)cc2cc(C3CC3)nnc12 [Example 1111]	< 200
COc1cc(C(=O)NC[C@](O)(c2cc3c(c(-c4cc(Cl)c(F)cc4F)n2)OC[C@]3(C)C(N)=O)C2(F)CC2)cc2cn(C(F)F)nc12 [Example 1112]	< 200
COc1cc(C(=O)NC[C@](O)(c2cc3c(c(-c4cc(Cl)c(F)cc4F)n2)OC[C@]3(C)C(N)=O)C2(F)CC2)cc2cc(Br)cnc12 [Example 1113]	< 200
COc1cc(C(=O)NC[C@](O)(c2cc3c(c(-c4ccc(F)c(Cl)c4F)n2)OC[C@]3(C)C(N)=O)C2(F)CC2)cc2cc(Br)cnc12 [Example 1114]	< 200
COc1cc(C(=O)NC[C@](O)(c2cc3c(c(-c4ccc(F)cc4)n2)OC[C@]3(C)C(N)=O)C(F)(F)F)cc2cc(Br)c(C)nc12 [Example 1115]	< 200
COc1cc(C(=O)NC[C@](O)(c2cc3c(c(-c4ccc(F)cc4)n2)OC[C@]3(C)C(N)=O)C2CC2)cc2cc(Br)c(C)nc12 [Example 1117]	< 200
COc1cc(C(=O)NC[C@](O)(c2cc3c(c(-c4ccc(F)cc4)n2)OC[C@]3(C)C(N)=O)C2(F)CC2)cc2cc(Br)c(C)nc12 [Example 1118]	< 200
COc1cc(C(=O)NC[C@](O)(c2cc3c(c(-c4ccc(F)c(Cl)c4F)n2)OC[C@]3(C)C(N)=O)C2CC2)cc2cc(Br)c(C)nc12 [Example 1129]	< 200
COc1cc(C(=O)NC[C@](O)(c2cc3c(c(-c4ccc5c(c4)OC(F)(F)O5)n2)OC[C@]3(C)C(N)=O)C2CC2)cc2cc(Br)c(C)nc12 [Example 1130]	< 200
COc1cc(C(=O)NC[C@](O)(c2cc3c(c(-c4cc(Cl)c(F)cc4F)n2)OC[C@]3(C)C(N)=O)C2CC2)cc2sc(C)nc12 [Example 1131]	< 200
COc1cc(C(=O)NC[C@](O)(c2cc3c(c(-c4cc(Cl)c(F)cc4F)n2)OC[C@]3(C)C(N)=O)C2CC2)cc2sc(C3CC3)nc12 [Example 1132]	< 200
CCNC(=O)[C@@]1(C)COc2c1cc([C@@](O)(CNC(=O)c1cc(OC)c3nn(C4CC4)cc3c1)C(F)(F)F)nc2-c1ccc(F)cc1 [Example 1171]	< 200
COc1cc(C(=O)NC[C@](O)(c2cc3c(c(-c4ccc(F)cc4)n2)OC[C@]3(C)C(=O)NC2CC2)C(F)(F)F)cc2cn(C3CC3)nc12 [Example 1172]	< 200
COc1cc(C(=O)NC[C@](O)(c2cc3c(c(-c4ccc(F)cc4)n2)OC[C@]3(C)C(=O)NCC(F)(F)F)C(F)(F)F)cc2cn(C3CC3)nc12 [Example 1173]	< 200
COc1cc(C(=O)NC[C@](O)(c2cc3c(c(-c4ccc(F)cc4)n2)OC[C@]3(C)C(=O)NC2COC2)C(F)(F)F)cc2cn(C3CC3)nc12 [Example 1174]	< 200
COc1cc(C(=O)NC[C@](O)(c2cc3c(c(-c4ccc(F)cc4)n2)OC[C@]3(C)C(=O)NCCC(C)(C)O)C(F)(F)F)cc2cn(C3CC3)nc12 [Example 1175]	< 200
COc1cc(C(=O)NC[C@](O)(c2cc3c(c(-c4ccc(F)cc4)n2)OC[C@]3(C)C(=O)NC2(C)CC2)C(F)(F)F)cc2cn(C3CC3)nc12 [Example 1176]	< 200
C[C@]1(C(N)=O)COc2c1cc([C@@](O)(CNC(=O)c1cc(OC3CC3)c3nn(C(F)F)cc3c1)C1CC1)nc2-c1ccc(F)c(F)c1Cl [Example 1197]	< 200
C[C@]1(C(N)=O)COc2c1cc([C@@](O)(CNC(=O)c1cc(OC3CC3)c3nn(C(F)F)cc3c1)C1CC1)nc2-c1cccc(Cl)c1F [Example 1198]	< 200
C[C@]1(C(N)=O)COc2c1cc([C@@](O)(CNC(=O)c1cc(OC3CC3)c3nn(C(F)F)cc3c1)C1CC1)nc2-c1cc(Cl)ccc1F [Example 1199]	< 200
Cc1cnc2c(OC(F)F)cc(C(=O)NC[C@](O)(c3cc4c(c(-c5cc(Cl)ccc5F)n3)OC[C@]4(C)C(N)=O)C3CC3)cc2c1 [Example 1200]	< 200
CNC(=O)[C@@]1(C)COc2c1cc([C@](O)(CNC(=O)c1cc(OC)c3nn(C4CC4)cc3c1)C(F)(F)F)nc2-c1ccc(F)c(F)c1Cl [Example 1201]	< 200
CNC(=O)[C@@]1(C)COc2c1cc([C@@](O)(CNC(=O)c1cc(OC)c3nn(C4CC4)cc3c1)C(F)(F)F)nc2-c1ccc(F)c(F)c1Cl [Example 1202]	< 200
CNC(=O)[C@@]1(C)COc2c1cc([C@@](O)(CNC(=O)c1cc(OC)c3nn(C4CC4)cc3c1)C(F)(F)F)nc2-c1cc(Cl)c(F)cc1F [Example 1203]	< 200

SMILES	EC50 [nM]
COc1cc(C(=O)NC[C@](O)(c2cc3c(c(-c4ccc(F)c(F)c4Cl)n2)OC[C@]3(C)C(=O)NC2(C)CC2)C(F)(F)F)cc2cn(C3CC3)nc12 [Example 1204]	< 200
COc1cc(C(=O)NC[C@](O)(c2cc3c(c(-c4cc(Cl)c(F)cc4F)n2)OC[C@]3(C)C(=O)NC2(C)CC2)C(F)(F)F)cc2cn(C3CC3)nc12 [Example 1205]	< 200
Cc1cnc2c(OC(F)F)cc(C(=O)NC[C@](O)(c3cc4c(c(-c5cccc(Br)c5F)n3)OC[C@]4(C)C(N)=O)C3CC3)cc2c1 [Example 1206]	< 200
Cc1cnc2c(OC(F)F)cc(C(=O)NC[C@](O)(c3cc4c(c(-c5ccc(F)c(Br)c5F)n3)OC[C@]4(C)C(N)=O)C3CC3)cc2c1 [Example 1207]	< 200
Cc1cnc2c(OC(F)F)cc(C(=O)NC[C@](O)(c3cc4c(c(-c5ccc(F)c(C(F)(F)F)c5)n3)OC[C@]4(C)C(N)=O)C3CC3)cc2c1 [Example 1208]	< 200
Cc1cnc2c(OC(F)F)cc(C(=O)NC[C@](O)(c3cc4c(c(-c5ccc(C(F)(F)F)cc5)n3)OC[C@]4(C)C(N)=O)C3CC3)cc2c1 [Example 1209]	< 200
COc1cc(C(=O)NC[C@](O)(c2cc3c(c(-c4ccc5c(c4)OC(F)(F)O5)n2)OC[C@]3(C)C(N)=O)C2CC2)cc2cc(C(F)F)nnc12 [Example 1210]	< 200
Cc1cnc2c(OC(F)F)cc(C(=O)NC[C@](O)(c3cc4c(c(-c5cccc(F)c5Cl)n3)OC[C@]4(C)C(N)=O)C3CC3)cc2c1 [Example 1211]	< 200
C[C@]1(C(N)=O)COc2c1cc([C@@](O)(CNC(=O)c1cc(OC(F)F)c3nn(C4CC4)cc3c1)C1CC1)nc2-c1cc(Cl)c(F)cc1F [Example 1212]	< 200
Cc1cnc2c(OC(F)F)cc(C(=O)NC[C@](O)(c3cc4c(c(-c5cc(F)c(F)c(Cl)c5)n3)OC[C@]4(C)C(N)=O)C3CC3)cc2c1 [Example 1213]	< 200
Cc1cnc2c(OC(F)F)cc(C(=O)NC[C@](O)(c3cc4c(c(-c5ccc(Cl)c(F)c5F)n3)OC[C@]4(C)C(N)=O)C3CC3)cc2c1 [Example 1214]	< 200
Cc1cnc2c(OC(F)F)cc(C(=O)NC[C@](O)(c3cc4c(c(-c5ccc(F)cc5Cl)n3)OC[C@]4(C)C(N)=O)C3CC3)cc2c1 [Example 1215]	< 200
[2H]c1nc2c(OC)cc(C(=O)NC[C@](O)(c3cc4c(c(-c5cc(Cl)c(F)cc5F)n3)OC[C@]4(C)C(N)=O)C3CC3)cc2cc1Br [Example 1216]	< 200
COc1cc(C(=O)NC[C@](O)(c2nc(-c3ccc(F)c(Cl)c3F)c3c(c2Cl)[C@@](C)(C(N)=O)CO3)C2CC2)cc2cn(C3CC3)nc12 [Example 1217]	> 200
COc1cc(C(=O)NC[C@@](O)(c2cc3c(c(-c4cc(Br)c(F)cc4F)n2)OC[C@]3(C)C(N)=O)C(F)(F)F)cc2cn(C3CC3)nc12 [Example 1222]	< 200
COc1cc(C(=O)NC[C@@](O)(c2cc3c(c(-c4cccc(Br)c4F)n2)OC[C@]3(C)C(N)=O)C(F)(F)F)cc2cn(C3CC3)nc12 [Example 1224]	< 200
COc1cc(C(=O)NC[C@](O)(c2cc3c(c(-c4cccc(Br)c4F)n2)OC[C@]3(C)C(N)=O)C(F)(F)F)cc2cn(C3CC3)nc12 [Example 1225]	< 200
COc1cc(C(=O)NCC(O)(c2cc3c(c(-c4ccc5c(c4)OC(F)(F)C5(F)F)n2)OC[C@]3(C)C(N)=O)C(F)(F)F)cc2cn(C3CC3)nc12 (stereo partly shown) [Example 1236]	> 200
COc1cc(C(=O)NC[C@@](O)(c2cc3c(c(-c4ccc5c(c4)OC(F)(F)C5(F)F)n2)OC[C@]3(C)C(N)=O)C2CC2)cc2cn(C3CC3)nc12 [Example 1237]	> 200
COc1cc(C(=O)NC[C@](O)(c2cc3c(c(-c4ccc5c(c4)OC(F)(F)C5(F)F)n2)OC[C@]3(C)C(N)=O)C2CC2)cc2cn(C3CC3)nc12 [Example 1238]	< 200
COc1cc(C(=O)NC[C@@](O)(c2cc3c(c(C4=CCN(C(=O)OC(C)(C)C)CC4)n2)OC[C@]3(C)C(N)=O)C(F)(F)F)cc2cn(C3CC3)nc12 [Example 1239]	> 200
COc1cc(C(=O)NCC(O)(c2cc3c(c(C4=CCOCC4)n2)OC[C@]3(C)C(N)=O)C(F)(F)F)cc2cn(C3CC3)nc12 (stereo partly shown) [Example 1240]	> 200
COc1cc(C(=O)NC[C@](O)(c2cc3c(c(C4=CCN(C(=O)OC(C)(C)C)CC4)n2)OC[C@]3(C)C(N)=O)C(F)(F)F)cc2cn(C3CC3)nc12 [Example 1241]	> 200
COc1cc(C(=O)NC[C@](O)(c2cc3c(c(-c4cc(F)cc(Cl)c4F)n2)OC[C@]3(C)C(N)=O)C(F)(F)F)cc2cn(C3CC3)nc12 [Example 1242]	< 200
COc1cc(C(=O)NC[C@](O)(c2cc3c(c(-c4cc(Cl)cc(F)c4F)n2)OC[C@]3(C)C(N)=O)C(F)(F)F)cc2cn(C3CC3)nc12 [Example 1243]	< 200

Reference: US12612412B2, “Antiviral heterocyclic compounds” (Enanta Pharmaceuticals, Inc., priority 2021, dated 2026)
